Source: PubChem BioAssay AID248 (DTP/NCI, 2004)
“And” between values parts separate entries of the source, which are not always exact repeats. Identical values can stand only once. Inconclusive results and toxic doses are left out. Rule as the data show it: active = T/C of 150% or more; inactive = T/C below 125%.

Test system: L1210 leukemia ip in BDF1 mice, survival T/C
Test: NCI In Vivo Anticancer Drug Screen. Data for tumor model L1210 Leukemia (intraperitoneal) in B6D2F1 (BDF1) mice
Settings: endpoint: mean survival time, higher = longer survival
Summary of the method: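 Each compound was tested against a transplantable tumor grown in mice. The endpoint was survival, with treated animals benchmarked against vehicle controls as a simple ratio.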

[1] = dose: 100.0 mg/kg/injection, schedule: Q01DX009 (ip), vehicle: Klucel (hydroxypropylcellulose) (HPC)
[2] = dose: 200.0 mg/kg/injection, schedule: Q01DX009 (ip), vehicle: Klucel (hydroxypropylcellulose) (HPC)
[3] = dose: 400.0 mg/kg/injection, schedule: Q01DX009 (ip), vehicle: Klucel (hydroxypropylcellulose) (HPC)
[4] = dose: 100.0 mg/kg/injection, schedule: Q04DX003 (ip), vehicle: Klucel (hydroxypropylcellulose) (HPC)
[5] = dose: 200.0 mg/kg/injection, schedule: Q04DX003 (ip), vehicle: Klucel (hydroxypropylcellulose) (HPC)
[6] = dose: 400.0 mg/kg/injection, schedule: Q04DX003 (ip), vehicle: Klucel (hydroxypropylcellulose) (HPC)
[7] = dose: 100.0 mg/kg/injection, schedule: Q01DX009 (ip), vehicle: saline
[8] = dose: 100.0 mg/kg/injection, schedule: Q04DX003 (ip), vehicle: saline with Tween-80
[9] = dose: 200.0 mg/kg/injection, schedule: Q01DX009 (ip), vehicle: saline
[10] = dose: 200.0 mg/kg/injection, schedule: Q04DX003 (ip), vehicle: saline with Tween-80
[11] = dose: 400.0 mg/kg/injection, schedule: Q01DX009 (ip), vehicle: saline
[12] = dose: 400.0 mg/kg/injection, schedule: Q04DX003 (ip), vehicle: saline with Tween-80
[13] = dose: 100.0 mg/kg/injection, schedule: Q01DX001 (ip), vehicle: saline
[14] = dose: 100.0 mg/kg/injection, schedule: Q04DX003 (ip), vehicle: saline
[15] = dose: 200.0 mg/kg/injection, schedule: Q01DX001 (ip), vehicle: saline
[16] = dose: 200.0 mg/kg/injection, schedule: Q04DX003 (ip), vehicle: saline
[17] = dose: 400.0 mg/kg/injection, schedule: Q01DX001 (ip), vehicle: saline
[18] = dose: 400.0 mg/kg/injection, schedule: Q04DX003 (ip), vehicle: saline
[19] = dose: 100.0 mg/kg/injection, schedule: Q01DX009 (ip), vehicle: saline with Tween-80
[20] = dose: 200.0 mg/kg/injection, schedule: Q01DX009 (ip), vehicle: saline with Tween-80
[21] = dose: 400.0 mg/kg/injection, schedule: Q01DX009 (ip), vehicle: saline with Tween-80
[22] = dose: 50.0 mg/kg/injection, schedule: Q01DX009 (ip), vehicle: Klucel (hydroxypropylcellulose) (HPC)

Measured: T/C

NS(=O)(=O)c1ccc(NC(=O)Nc2cc(C(F)(F)F)ccc2Cl)cc1
inactive: [1] 95 % of control | [2] 100 % of control | [3] 98 % of control

CNC(Cc1ccccc1)c1ccc(OC)cc1 (stereo unspecified)
inactive: [1] 100 % of control | [4] 96 % of control | [2] 98 % of control | [5] 98 % of control | [6] 101 % of control

CC(C)N(C)N=Nc1n[nH]nc1C(N)=O
inactive: dose: 200.0 mg/kg/injection, schedule: Q01DX Z (ip), vehicle: carboxymethylcellulose (CMC) 104 % of control

CNC(=O)N(C)Cc1ccccc1
inactive: [7] 107 % of control | [8] 104 % of control | [9] 115 % of control | [10] 93 % of control | [11] 117 % of control | [12] 104 % of control

CCCCOP(=O)(OCCCC)OC(C)C(C)=O (stereo unspecified)
inactive: [13] 95 % of control | [14] 102 % of control | [15] 104 % of control | [16] 98 % of control | [17] 101 % of control | [18] 90 % of control

Cc1cc(C2CCCCC2)c2ccccc2c1C
inactive: dose: 100.0 mg/kg/injection, schedule: Q01DX009 (ip), vehicle: saline sonified 95 % of control | [4] 103 % of control | dose: 200.0 mg/kg/injection, schedule: Q01DX009 (ip), vehicle: saline sonified 102 % of control | [5] 98 % of control | dose: 400.0 mg/kg/injection, schedule: Q01DX009 (ip), vehicle: saline sonified 99 % of control | [6] 106 % of control

Cc1cc(C)[nH]c(=O)n1
inactive: [7] 98 % of control | [14] 100 % of control | [9] 88 % of control | [16] 94 % of control | [18] 96 % of control

CCOc1ccc(/C=N/NS(=O)(=O)c2ccccc2)cc1OC
inactive: [19] 94 % of control | dose: 100.0 mg/kg/injection, schedule: Q04DX003 (ip), vehicle: saline sonified 107 % of control | [20] 98 % of control | dose: 200.0 mg/kg/injection, schedule: Q04DX003 (ip), vehicle: saline sonified 86 % of control | [21] 89 % of control | dose: 400.0 mg/kg/injection, schedule: Q04DX003 (ip), vehicle: saline sonified 98 % of control

CC1(Br)C(=O)NC(=O)NC1O (stereo unspecified)
inactive: [22] 98 % of control | [1] 94 % of control | [2] 94 % of control

N#CCc1ccccc1S(=O)(=O)O
inactive: [7] 105 % of control | [14] 98 % of control | [9] 100 % of control | [16] 102 % of control | [11] 103 % of control | [18] 101 % of control

COC1=C2CCCCC2=[N+]2CCc3ccccc3C2C1 (stereo unspecified)
inactive: dose: 100.0 mg/kg/injection, schedule: Q01DX001 (ip), vehicle: Klucel (hydroxypropylcellulose) (HPC) 93 % of control

C[P+]1(C)CC2OC23CCCCC31 (stereo unspecified)
inactive: dose: 12.5 mg/kg/injection, schedule: Q01DX009 (ip), vehicle: saline 98 % of control | dose: 25.0 mg/kg/injection, schedule: Q01DX009 (ip), vehicle: saline 93 % of control | dose: 50.0 mg/kg/injection, schedule: Q01DX009 (ip), vehicle: saline 94 % of control | [7] 96 % of control

c1cc[n+](CC[n+]2ccccc2)cc1
inactive: [13] 97 % of control | [1] 100 % of control | [7] 101 % of control | [4] 107 % of control | [15] 103 % of control | [2] 103 % of control | [9] 93 % of control | [5] 101 % of control | [17] 94 % of control | [3] 91 % of control | [11] 90 % of control | [6] 98 % of control

Cc1ccccc1OC(=O)Nc1ccc(C(=O)O)c(O)c1
inactive: dose: 100.0 mg/kg/injection, schedule: Q01DX001 (ip), vehicle: saline with Tween-80 93 % of control | [19] 94 % of control | dose: 200.0 mg/kg/injection, schedule: Q01DX001 (ip), vehicle: saline with Tween-80 96 % of control | [20] 97 % of control | dose: 400.0 mg/kg/injection, schedule: Q01DX001 (ip), vehicle: saline with Tween-80 93 % of control

CCN(CCOC(=O)Nc1ccc(F)cc1)c1ccccc1
inactive: [1] 98 % of control | [2] 98 % of control | [3] 110 % of control

CCOP(=S)(S)OCC
inactive: [14] 97 % of control and 98 % of control | [16] 95 % of control and 93 % of control | [18] 98 % of control

O=C(O)CCC(=O)c1ccc2sc3ccccc3c2c1
inactive: dose: 25.0 mg/kg/injection, schedule: Q01DX009 (ip), vehicle: Klucel (hydroxypropylcellulose) (HPC) 106 % of control | [22] 100 % of control | [1] 97 % of control and 106 % of control | [4] 98 % of control | [5] 103 % of control | [6] 89 % of control

Nc1ncnc(N)c1NC(=O)Cc1cccc([N+](=O)[O-])c1
inactive: dose: 12.5 mg/kg/injection, schedule: Q01DX001 (ip), vehicle: Klucel (hydroxypropylcellulose) (HPC) 101 % of control | dose: 25.0 mg/kg/injection, schedule: Q01DX001 (ip), vehicle: Klucel (hydroxypropylcellulose) (HPC) 110 % of control | dose: 50.0 mg/kg/injection, schedule: Q01DX001 (ip), vehicle: Klucel (hydroxypropylcellulose) (HPC) 96 % of control and 103 % of control

Cn1cnc([N+](=O)[O-])c1Sc1nc(N)nc2c1ncn2C1CC(O)C(CO)O1 (stereo unspecified)
active: dose: 6.25 mg/kg/injection, schedule: Q01DX005 (ip), vehicle: saline 155 % of control | dose: 12.5 mg/kg/injection, schedule: Q01DX005 (ip), vehicle: saline 173 % of control | dose: 25.0 mg/kg/injection, schedule: Q01DX005 (ip), vehicle: saline 150 % of control
inactive: dose: 100.0 mg/kg/injection, schedule: Q01DX005 (ip), vehicle: saline 94 % of control | dose: 200.0 mg/kg/injection, schedule: Q01DX005 (ip), vehicle: saline 107 % of control | dose: 240.0 mg/kg/injection, schedule: Q01DX005 (ip), vehicle: saline 122 % of control | dose: 600.0 mg/kg/injection, schedule: Q01DX005 (ip), vehicle: saline 115 % of control

CC(C)=CC(=O)c1ccccc1
inactive: dose: 100.0 mg/kg/injection, schedule: Q01DX001 (ip), vehicle: acetone 100 % of control | dose: 200.0 mg/kg/injection, schedule: Q01DX001 (ip), vehicle: acetone 94 % of control | dose: 400.0 mg/kg/injection, schedule: Q01DX001 (ip), vehicle: acetone 103 % of control

COc1ccc([N+](=O)[O-])cc1NS(=O)(=O)c1ccc(Cl)c([N+](=O)[O-])c1
inactive: dose: 50.0 mg/kg/injection, schedule: Q01DX009 (ip), vehicle: saline with Tween-80 95 % of control and 90 % of control | dose: 50.0 mg/kg/injection, schedule: Q04DX003 (ip), vehicle: other 97 % of control | dose: 100.0 mg/kg/injection, schedule: Q01DX009 (ip), vehicle: other 105 % of control | [19] 93 % of control and 106 % of control | dose: 100.0 mg/kg/injection, schedule: Q04DX002 (ip), vehicle: other 107 % of control and 113 % of control | dose: 100.0 mg/kg/injection, schedule: Q04DX003 (ip), vehicle: other 96 % of control | [20] 95 % of control | dose: 200.0 mg/kg/injection, schedule: Q04DX002 (ip), vehicle: other 96 % of control and 102 % of control | dose: 200.0 mg/kg/injection, schedule: Q04DX003 (ip), vehicle: other 89 % of control | dose: 400.0 mg/kg/injection, schedule: Q01DX009 (ip), vehicle: other 87 % of control | [21] 95 % of control | dose: 400.0 mg/kg/injection, schedule: Q04DX002 (ip), vehicle: other 101 % of control and 102 % of control

O=C(c1ccc(F)cc1)c1ccc(Cl)cc1Cl
inactive: [8] 97 % of control | [10] 98 % of control | [12] 101 % of control

N#CCC(N)=S
inactive: dose: 25.0 mg/kg/injection, schedule: Q04DX002 (ip), vehicle: gum acacia 120 % of control | dose: 50.0 mg/kg/injection, schedule: Q04DX002 (ip), vehicle: gum acacia 109 % of control
